{"source": "patent US5334761A", "about": "“Cationic lipids” (Life Technologies, Inc., priority 1992, dated 1994)", "key": {"PC12 cells [1]": {"system": "PC12 cells", "assay": "CAT transient transfection", "assay_type": "cell-based, rat", "protocol": "(§1) A one-to-one mixture (by weight) of the desired lipid and dioleylphosphatidyl ethanolamine was prepared in CHCl3. The CHCl3 was removed on the rotary evaporator to obtain a thin film of lipid mixture. The mixture was hydrated with enough water to obtain approximately 1.25 mg of lipid per ml of solution. The solution was passed through a microfluidizer twice and diluted to 1 mg/ml. The liposome formulation was then filtered through a 0.2 μ filter. Compound 8 was also formulated without DOPE either by sonication at 1 mg/ml in water or by dissolving a dried lipid film with ethanol and then adding water to give a final concentration of 2.5 mg/ml. Ethanol was 10% of that volume. In some instances, this was further diluted with water to 1 mg/ml, 4% ethanol.\n(§2) Baby hamster kidney (BHK-21) , COS-7, HeLa-S3 cells, and normal human fibroblasts isolated from newborn foreskin dermis were grown in Dulbecco's-modified Eagle's medium (DMEM) containing 10% fetal bovine serum (FBS), 2 mM L-glutamine (gln), 0.1 mM MEM nonessential amino acids (NEAA), 100 U/ml penicillin, and 100 μg/ml streptomycin. […]\n(§3) Cell lysates were assayed for CAT activity as described by Neumann et al. (1987) BioTechniques 5:444 using [^14 C]-butyryl coenzyme A (New England Nuclear, Boston, Mass.). […] CAT activity was determined by measuring radioactivity in a liquid scintillation counter. […]"}, "[2]": {"assay": "% protein (toxicity estimate, Bradford) after transfection", "assay_type": "cell-based, rat", "details": "rat, pc12 cells; 40 μg lipid; 2 μg pCMVCAT; 6 h DMEM", "protocol": "as §1, §2\n(§4) The \"% protein\" column indicates the relative amount of protein in the sample tested for CAT activity and therefore provides a way to estimate toxicity of the compounds being tested. […] Protein was measured using a commercially available Bradford protein assay (BioRad Laboratories, Richmond, Ca.). […]"}, "PC12 cells [3]": {"system": "PC12 cells", "assay": "% protein (toxicity estimate, Bradford) after transfection", "assay_type": "cell-based, rat", "details": "PC12", "protocol": "as §1, §2, §4"}, "BHK-21 cells [4]": {"system": "BHK-21 cells", "assay": "% protein (toxicity estimate, Bradford) after transfection", "assay_type": "cell-based, baby hamster", "protocol": "as §1, §2, §4"}, "BHK-21 cells [5]": {"system": "BHK-21 cells", "assay": "CAT transient transfection", "assay_type": "cell-based, baby hamster", "protocol": "as §1, §2, §3"}, "[6]": {"assay": "% protein (toxicity estimate, Bradford) after transfection", "assay_type": "cell-based", "details": "monkey, cos-7 cells; 12 μg lipid; 1 μg pSV2CAT; 6 h DMEM", "protocol": "as §1, §2, §4"}, "COS-7 cells": {"system": "COS-7 cells", "assay": "% protein (toxicity estimate, Bradford) after transfection", "assay_type": "cell-based", "details": "Cos-7", "protocol": "as §1, §2, §4"}, "[7]": {"system": "normal human keratinocytes", "assay": "% protein (toxicity estimate, Bradford) after transfection", "assay_type": "cell-based", "protocol": "as §1\nBaby hamster kidney (BHK-21) , COS-7, HeLa-S3 cells, and normal human fibroblasts isolated from newborn foreskin dermis were grown in Dulbecco's-modified Eagle's medium (DMEM) containing 10% fetal bovine serum (FBS), 2 mM L-glutamine (gln), 0.1 mM MEM nonessential amino acids (NEAA), 100 U/ml penicillin, and 100 μg/ml streptomycin. NIH-3T3 cells were grown in DMEM containing 10% calf serum (CS), 2 mMgln, 0.1 mM NEAA 100 U/ml penicillin, and 100 μg/ml streptomycin. PC12 cells were grown in DMEMcontaining 10% horse serum, 5% FBS, 2 mM gln, 0 1 mMNEAA, 100 U/ml penicillin and 100 μ/ml streptomycin. Jurkat cells (human lymphoid cell line) were grown in RPMI-1640 supplemented with 10% FBS, 2mML-glutamine, 100 U/ml penicillin, and 100 μg/ml streptomycin. Human keratinocytes were isolated from newborn foreskin epidermis and cultured in Keratinocyte Growth Medium (Clonetics, San Diego, Ca.). All cell lines were maintained in a humidified incubator with a 5% CO2 atmosphere at 37° C. […]\nas §4"}}, "note": "Structures can show the parent of a compound that is named as a salt.", "data": [{"smiles": "CCCCCCCC/C=C\\CCCCCCCCOCC(C[N+](C)(C)CCNC(=O)C(CCCNCCCN)NCCCN)OCCCCCCCC/C=C\\CCCCCCCC", "note": "(stereo not drawn) [Compound 8, 1-Propanaminium, N-[2-[[2,5-bis[(3-amino]-1-oxopentyl]amino]ethyl]-n,n-dimethyl-2,3,-bis(9-octadecenyloxy)-, tetra(trifluoroacetate) salt]", "values": [{"measurement": "CAT ACTIVITY", "setting": "PC12 cells [1]; 40 μg lipid, 2 μg pCMVCAT, 6 h DMEM", "result": "28,512 CPM/150 ul"}, {"measurement": "DNA transfection (in words)", "setting": "PC12 cells [1]; PC12", "result": "highly effective"}, {"measurement": "viability at 6 h", "setting": "[2]", "result": 66, "unit": "%"}, {"measurement": "toxicity (in words)", "setting": "PC12 cells [3]", "result": "minimal toxicity"}, {"measurement": "toxicity (in words)", "setting": "BHK-21 cells [4]", "result": "minimal toxicity"}, {"measurement": "DNA transfection (in words)", "setting": "BHK-21 cells [5]", "result": "highly effective"}, {"measurement": "viability at 6 h", "setting": "[6]", "result": 99.1, "unit": "%"}, {"measurement": "toxicity (in words)", "setting": "COS-7 cells", "result": "minimal toxicity"}, {"measurement": "toxicity (in words)", "setting": "[7]", "result": "minimal toxicity"}]}]}
